{
  "source": "patent US20250109132A1",
  "about": "“COMPOUNDS AND METHODS FOR TREATING FRIEDREICH'S ATAXIA” (Design Therapeutics, Inc., priority 2022, published 2025)",
  "data": [
    {"system": "human FXN", "test": "EC50 Assay: FXN mRNA expression by qRT-PCR in GM15850 cells", "type": "cell-based", "details": "GM15850 cell suspension, 48 hrs incubation, hFXN expression normalized to hGAPDH, 5-point 3-fold dose response, read-out: EC50 WT (nM, 48 hr)", "description": "Cell culture: Cells were cultured in RPMI1640 medium+15% FBS. Cells were maintained at a density between […]. Cells were centrifuged, resuspended in fresh medium, counted and plated at 150,000 cells per well in 100 μL in a non-coated, flat bottom tissue culture plate.\nCompound treatment: 10 mM stock solution of FA GeneTAC was diluted 1:10 in DMSO followed by a 1:100 dilution in growth medium. Working solution was then further diluted to 1OX desired final concentration of 150 nM. Compound was then diluted at a 1:3 ratio into growth medium containing 0.01% DMSO. 5-point, 3-fold dose response curve was generated. 11 μL of 10× compound was added to wells containing 100 μL cell suspension of GM15850. 11 μL growth medium containing 0.01% DMSO was added to all wells not treated with FA GeneTAC. Cells were allowed to incubate for 48 hrs prior to cell lysis using guanidine isothiocyanate solution.\nRNA isolation: Total RNA was isolated and purified in 384-well column filter plates using chaotropic salt.\nqRT-PCR: qRT-PCR reactions were assembled using AgPath-ID reagents (Thermo Fisher) using 6 μL mastermix and 4 μL RNA. qRT-PCR TaqMan primer probe sets against human FXN (Assay ID Hs01075496 ml) and human GAPDH (Assay ID Hs00266705_g1) were used to measure the intended targets. qRT-PCR was run on the ThermoFisher QuantStudio 6 PRO instrument using the manufacturer's recommended cycling conditions.\nData analysis: qPCR data was analyzed using Thermo Fisher Design and Analysis software. Data was exported to Excel and hFXN expression was normalized to hGAPDH expression\nA<100 nM; B is 100 nM to 500 nM; C>500 nM.", "units": {"EC50": "nM"}, "values": [
      {"smiles": "COCCOCCOCCOCCOCCOCCOc1cc(NC(=O)c2cc3c(-c4cc(C(C)(C)O)ccc4Oc4c(C)cc(F)cc4C)cn(C)c(=O)c3[nH]2)ccc1OCCOCCOCCOCCOCCOCCOCCOCCOCCNC(=O)CCNC(=O)c1nc(NC(=O)CCNC(=O)c2cc(NC(=O)c3nc(NC(=O)CCNC(=O)c4cc(NC(=O)c5nccn5C)cn4C)cn3C)cn2C)cn1C", "note": "[Compound 4]", "EC50": "< 100"},
      {"smiles": "Cc1cc(F)cc(C)c1Oc1ccc(C(C)(C)O)cc1-c1cn(C)c(=O)c2[nH]c(C(=O)Nc3ccc(OCCOCCOCCOCCOCCOCCNC(=O)CCNC(=O)c4nc(NC(=O)CCNC(=O)c5cc(NC(=O)c6nc(NC(=O)CCNC(=O)c7cc(NC(=O)c8nccn8C)cn7C)cn6C)cn5C)cn4C)cc3)cc12", "note": "[Compound 11]", "EC50": "< 100"},
      {"smiles": "Cc1cc(F)cc(C)c1Oc1ccc(C(C)(C)O)cc1-c1cn(C)c(=O)c2[nH]c(C(=O)NCc3ccc(OCCOCCOCCOCCOCCOCCOCCOCCOCCNC(=O)CCNC(=O)c4nc(NC(=O)CCNC(=O)c5cc(NC(=O)c6nc(NC(=O)CCNC(=O)c7cc(NC(=O)c8nccn8C)cn7C)cn6C)cn5C)cn4C)cc3)cc12", "note": "[Compound 6]", "EC50": "< 100"},
      {"smiles": "COC(C)(C)c1ccc(Oc2c(C)cc(F)cc2C)c(-c2cn(C)c(=O)c3[nH]c(C(=O)Nc4ccc(OCCOCCOCCOCCOCCOCCOCCOCCOCCNC(=O)CCNC(=O)c5nc(NC(=O)CCNC(=O)c6cc(NC(=O)c7nc(NC(=O)CCNC(=O)c8cc(NC(=O)c9nccn9C)cn8C)cn7C)cn6C)cn5C)cc4)cc23)c1", "note": "[Compound 1]", "EC50": "< 100"},
      {"smiles": "Cc1cc(F)cc(C)c1Oc1ccc(C(C)(C)O)cc1-c1cn(C)c(=O)c2[nH]c(C(=O)Nc3ccc(OCCOCCOCCOCCOCCOCCOCCOCCOCCNC(=O)CCNC(=O)CCNC(=O)c4nc(NC(=O)CCNC(=O)c5cc(NC(=O)c6nc(NC(=O)CCNC(=O)c7cc(NC(=O)c8nccn8C)cn7C)cn6C)cn5C)cn4C)cc3)cc12", "note": "[Compound 10]", "EC50": "< 100"},
      {"smiles": "Cc1cc(F)cc(C)c1Oc1ccc(C(C)(C)O)cc1-c1cn(C)c(=O)c2[nH]c(C(=O)Nc3ccc(OCCOCCOCCOCCOCCOCCOCCOCCOCCNC(=O)c4nc(NC(=O)CCNC(=O)c5cc(NC(=O)c6nc(NC(=O)CCNC(=O)c7cc(NC(=O)c8nccn8C)c[nH]7)cn6C)c[nH]5)cn4C)cc3)cc12", "note": "[Compound 9]", "EC50": "< 100"},
      {"smiles": "Cc1cc(F)cc(C)c1Oc1ccc(C(C)(C)O)cc1-c1cn(C)c(=O)c2[nH]c(C(=O)Nc3ccc(OCCOCCOCCOCCOCCOCCOCCOCCOCCNC(=O)CCNC(=O)c4nc(NC(=O)CCNC(=O)c5cc(NC(=O)c6nc(NC(=O)CCNC(=O)c7cc(NC(=O)c8nccn8C)cn7C)cn6C)cn5C)cn4C)c(O)c3)cc12", "note": "[Compound 12]", "EC50": "< 100"},
      {"smiles": "CCNC(=O)c1cc2c(-c3cc(C(C)(C)O)ccc3Oc3c(C)cc(OCCOCCOCCOCCOCCOCCOCCOCCOCCNC(=O)CCNC(=O)c4nc(NC(=O)CCNC(=O)c5cc(NC(=O)c6nc(NC(=O)CCNC(=O)c7cc(NC(=O)c8nccn8C)cn7C)cn6C)cn5C)cn4C)cc3C)cn(C)c(=O)c2[nH]1", "note": "[Compound 17]", "EC50": "< 100"},
      {"smiles": "Cc1cc(F)cc(C)c1Oc1ccc(S(C)(=O)=O)cc1-c1cn(C)c(=O)c2[nH]c(C(=O)Nc3ccc(OCCOCCOCCOCCOCCOCCOCCOCCOCCNC(=O)CCNC(=O)c4nc(NC(=O)CCNC(=O)c5cc(NC(=O)c6nc(NC(=O)CCNC(=O)c7cc(NC(=O)c8nccn8C)cn7C)cn6C)cn5C)cn4C)cc3)cc12", "note": "[Compound 2]", "EC50": "< 100"},
      {"smiles": "CCS(=O)(=O)c1ccc(Oc2c(C)cc(F)cc2C)c(-c2cn(C)c(=O)c3[nH]c(C(=O)Nc4ccc(OCCOCCOCCOCCOCCOCCOCCOCCOCCNC(=O)CCNC(=O)c5nc(NC(=O)CCNC(=O)c6cc(NC(=O)c7nc(NC(=O)CCNC(=O)c8cc(NC(=O)c9nccn9C)cn8C)cn7C)cn6C)cn5C)cc4)cc23)c1", "note": "[Compound 3]", "EC50": "< 100"},
      {"smiles": "Cc1cc(F)cc(C)c1Oc1ccc(C(C)(C)O)cc1-c1cn(C)c(=O)c2[nH]c(C(=O)Nc3ccc(OCCOCCOCCOCCOCCOCCOCCOCCOCCNC(=O)c4nc(NC(=O)CCNC(=O)c5cc(NC(=O)c6nc(NC(=O)CCNC(=O)c7cc(NC(=O)c8nccn8C)cn7C)cn6C)cn5C)cn4C)cc3)cc12", "note": "[Compound 7]", "EC50": "< 100"},
      {"smiles": "Cc1cc(F)cc(C)c1Oc1ccc(C(C)(C)O)cc1-c1cn(C)c(=O)c2[nH]c(C(=O)NCc3cn(CCOCCOCCOCCOCCOCCOCCOCCOCCNC(=O)CCNC(=O)c4nc(NC(=O)CCNC(=O)c5cc(NC(=O)c6nc(NC(=O)CCNC(=O)c7cc(NC(=O)c8nccn8C)cn7C)cn6C)cn5C)cn4C)nn3)cc12", "note": "[Compound 5]", "EC50": "< 100"},
      {"smiles": "Cc1cc(F)cc(C)c1Oc1ccc(C(C)(C)O)cc1-c1cn(C)c(=O)c2[nH]c(C(=O)Nc3ccc(OCCOCCOCCOCCOCCOCCOCCOCCOCCNC(=O)CCNC(=O)c4nc(NC(=O)CCNC(=O)c5cc(NC(=O)c6nc(NC(=O)CCNC(=O)c7cc(NC(=O)c8nccn8C)cn7C)cn6C)cn5C)cn4C)cc3)cc12", "note": "[Compound 15]", "EC50": "< 100"}
    ]}
  ]
}
